# Tests used:
# [1] = target: T1, Multimetal Binding Site (MBS) of Human Serum Albumin (HSA) (Homo sapiens, UniProt P02768); assay: Visible-range CD titration of Cu(II) binding at MBS of HSA; details: for log K app (apparent binding constant of the Cu(II)-MBS complex): 100 mM ligand solution, pH 7.4, 25°C, HSA 0.3–0.5 mM, binary species only assumed; for CI (competitivity index): Cu(II) and Z = 1 μM, HSA = 0.5 mM; for CI (competitivity index) / log K e (MBS + Cu(L) = Cu(MBS)(L)) / log K T (Cu(MBS) + Cu(L) = Cu(MBS)(L) + Cu^2+): pH 7.4; for log K 111 (Cu^2+ + L + MBS = Cu(MBS)(L)): pH 7.4, conditional constant, ternary complex model; for log K e (MBS + Cu(L) = Cu(MBS)(L)): log K 111 = log K 11 + log K e; for log K T (Cu(MBS) + Cu(L) = Cu(MBS)(L) + Cu^2+): log K T = log K 111 − log K 11 − log K app (NaCl)
# T1 construct: purchased Sigma
# T1 sequence (P02768 25-609): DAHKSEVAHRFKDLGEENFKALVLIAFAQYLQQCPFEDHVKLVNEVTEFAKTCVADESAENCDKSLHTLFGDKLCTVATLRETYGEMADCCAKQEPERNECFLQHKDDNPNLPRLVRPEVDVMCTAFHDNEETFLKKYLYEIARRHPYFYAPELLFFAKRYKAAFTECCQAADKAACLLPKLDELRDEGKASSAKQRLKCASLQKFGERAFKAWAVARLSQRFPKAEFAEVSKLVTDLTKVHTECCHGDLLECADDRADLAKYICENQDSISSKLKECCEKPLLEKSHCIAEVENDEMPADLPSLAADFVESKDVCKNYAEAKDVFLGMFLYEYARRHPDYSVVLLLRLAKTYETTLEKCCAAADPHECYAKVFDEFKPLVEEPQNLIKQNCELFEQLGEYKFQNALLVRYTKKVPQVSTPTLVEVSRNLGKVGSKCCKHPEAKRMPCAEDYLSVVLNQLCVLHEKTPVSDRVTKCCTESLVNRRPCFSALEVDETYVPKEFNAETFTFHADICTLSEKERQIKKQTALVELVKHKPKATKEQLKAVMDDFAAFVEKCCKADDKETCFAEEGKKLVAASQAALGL
# Experimental: The CD spectra were recorded at 25°C on a Jasco J-715 spectropolarimeter (JASCO, Japan Spectroscopic Co., Hiroshima, Japan), over the range of 300–800 nm, using a 1 cm cuvette. The spectra are expressed in terms of Δε = ε l − ε r, where ε l and ε r are molar absorption coefficients for left and right circularly polarized light, respectively. In buffer experiments the solutions contained 100 mM Hepes, Tris, Sodium Phosphate, or NaCl, at pH 7.4.
# HSA was dissolved at 0.3–0.5 mM in either a 100 mM Hepes, Tris, Sodium Phosphate buffers, pH 7.4, or in an unbuffered 100 mM NaCl solution. The pH of both types of samples was controlled to remain in the 7.38–7.42 corridor and adjusted with submicroliter amounts of concentrated HCl or NaOH when necessary. Concentrations of stock solutions of HSA were estimated spectrophotometrically at 279 nm and by Cu(II) titrations. The fractional abundance of NTS in HSA was measured by careful CD titrations using calibrated Cu(II) solutions.
# We chose sodium phosphate, Tris and Hepes as the most common substances used for buffering protein solutions at pH 7.4. Their effect on Cu(II) binding to HSA was studied at a 0.1 M concentration stage versus unbuffered 0.1 M NaCl, used as a control solution. The choice of the latter was dictated by the presence of 0.1 M chloride in the blood serum. The pH of the NaCl samples was controlled by additions of small quantities of concentrated HCl or NaOH solutions, when necessary. […] The titrations were monitored by CD spectroscopy, analogously to our previous studies.
# A typical titration is presented on Figure 1.
# Apparent binding constants (K app) for Cu(II)-MBS complexes in the presence of buffers were obtained from titrations presented in Figure 2. Table 1 contains also further constants, calculated relative to the Cu(II)-MBS interaction in NaCl, taken as corresponding to a 100% binary complex formation.
# First, the effects of competition of buffers for Cu(II) were accounted for Literature protonation and Cu(II) binding constants of Hepes, Tris, and phosphate ions were used in these calculations. […] The reactions defining these constants are provided in the footnotes of Table 1.
# Briefly, K 111 describes the overall formation of a ternary species, K 11 is the literature binding constant of the Cu(II) complex of a buffer, K e corresponds to the ternary complex formation by addition of buffer-complexed Cu(II) to MBS, and K T is the equilibrium constant of the formation of the ternary complex in the reaction of two binary complexes, thus featuring the tendency of binary components to form a ternary species. All these constants, except for K 11, are conditional in respect to the pH value of 7.4.
# [2] = literature values ref 30–32; cited from earlier work
# HSA = details: cited from earlier work
log K app (apparent binding constant of the Cu(II)-MBS complex) [1],CI (competitivity index) ([1]; [L] = 0.5 mM),CI (competitivity index) ([1]; [L] = 100 mM),log K 111 (Cu^2+ + L + MBS = Cu(MBS)(L)) [1],log K e (MBS + Cu(L) = Cu(MBS)(L)) [1],log K T (Cu(MBS) + Cu(L) = Cu(MBS)(L) + Cu^2+) [1],SMILES,log K 11 (Cu^2+ + L = Cu(L)) [2],HSA binding constant (HSA) [M⁻¹]
5.17(7),8.04,10.13,8.2(1),5.00,+0.40,"O=P(O)(O)O [Phosphate, sodium phosphate]",3.20,–
4.23(6),7.74,9.42,8.22(5),4.17,−0.43,"NC(CO)(CO)CO [Tris, 2-amino-2(hydroxymethyl)-1,3-propanediol]",4.05,–

# Second part, the compound before the results:
SMILES,log K app (apparent binding constant of the Cu(II)-MBS complex) [1],CI (competitivity index) ([1]; [L] = 0.5 mM),CI (competitivity index) ([1]; [L] = 100 mM),log K 111 (Cu^2+ + L + MBS = Cu(MBS)(L)) [1],log K e (MBS + Cu(L) = Cu(MBS)(L)) [1],log K T (Cu(MBS) + Cu(L) = Cu(MBS)(L) + Cu^2+) [1],log K 11 (Cu^2+ + L = Cu(L)) [2],HSA binding constant (HSA) [M⁻¹]
"O=S(=O)(O)CCN1CCN(CCO)CC1 [Hepes, N-2-hydroxyethylpiperazine-N′-2-ethanesulfonic acid]",4.45(5),7.71,9.27,7.54(5),4.32,−0.28,3.22,–
[Cl-].[Na+] [NaCl],4.60(3),7.62,7.62,–,–,–,–,–
"CC(=O)CC(c1ccccc1)c1c(O)c2ccccc2oc1=O (stereo not shown) [War, warfarin]",–,–,–,–,–,–,–,330000

# From article PMC2864911, “Effect of Common Buffers and Heterocyclic Ligands on the Binding of Cu(II) at the Multimetal Binding Site in Human Serum Albumin” (Bioinorganic Chemistry and Applications, 2010)
